The values below come from paper PMC6242839 (Nature Communications, 2018).

Values after ≈ are worked out from the molar mass of the structure shown. Like-named read-outs stand apart in the source and are kept apart here.

Data set [1] concerns B. cereus ATCC 14579 strains resistant to known antibiotics. As to the kind of experiment: microbe, parasite or virus in culture. It is filed as cell-based, Bacillus cereus.
Data set [2] concerns Bacillus cereus ATCC 14579. To be noted: cited from earlier work.
In data set [3] the test system is B. anthracis Sterne strain. As to the kind of experiment: microbe, parasite or virus in culture. Conditions: Bacillus anthracis; 16 h at 37 °C; read-out: MIC B. anthracis Sterne. It is filed as cell-based.
Data set [4] deals with B. anthracis pathogenic strain (human isolate). As to the kind of experiment: microbe, parasite or virus in culture. Format: cell-based. To be noted: Bacillus anthracis; 16 h at 37 °C; read-out: MIC B. anthracis Pathogenic.
Data set [5] deals with B. anthracis ovine strain (animal isolate). Kind of data set: microbe, parasite or virus in culture. It is filed as cell-based. To be noted: Bacillus anthracis; 16 h at 37 °C; read-out: MIC B. anthracis Ovine.
In the next data set the test system is E. faecalis (ATCC 29212). Kind of data set: microbe, parasite or virus in culture. To be noted: Enterococcus faecalis, ATCC29212; 16 h at 37 °C; read-out: MIC E. faecalis. It is filed as cell-based.
A further data set has as its system B. cereus (ATCC 10876). As to the kind of experiment: microbe, parasite or virus in culture. Format: cell-based. To be noted: Bacillus cereus, ATCC10876; 16 h at 37 °C; read-out: MIC B. cereus.
Another data set has as its system B. cereus ATCC 14579. Kind of data set: microbe, parasite or virus in culture. It is filed as cell-based, Bacillus cereus. Conditions: Bacillus cereus, ATCC14579.
The conditions of data set [6]: POPE LUVs, compound 50 µM.
The conditions of data set [7]: POPC LUVs, compound 50 µM.
A further data set is described as follows: in vitro. Conditions: human.
A further data set concerns E. coli K12 spheroplasts. As to the kind of experiment: microbe, parasite or virus in culture. It is filed as cell-based, Escherichia coli.
Data set [8] relates to S. aureus ATCC 29213 protoplasts. Kind of data set: microbe, parasite or virus in culture. Format: cell-based, Staphylococcus aureus.

`CC[C@H]1OC(=O)[C@H](C)[C@@H](O[C@H]2C[C@@](C)(OC)[C@@H](O)[C@H](C)O2)[C@H](C)[C@@H](O[C@@H]2O[C@H](C)C[C@H](N(C)C)[C@H]2O)[C@](C)(O)C[C@@H](C)C(=O)[C@H](C)[C@@H](O)[C@]1(C)O` [Erythromycin]: the “MIC of the antibiotic” value in data set [1] was found to be 0.02 mg/mL. The MIC in data set [2] was 0.008 mg/mL (≈ 10.9 µM).
For `CO[C@H]1/C=C/O[C@@]2(C)Oc3c(C)c(O)c4c(O)c(c(/C=N/N5CCN(C)CC5)c(O)c4c3C2=O)NC(=O)/C(C)=C\C=C\[C@H](C)[C@H](O)[C@@H](C)[C@@H](O)[C@@H](C)[C@H](OC(C)=O)[C@@H]1C` [Rifampicin], the MIC in data set [2] is 0.0005 mg/mL (≈ 0.608 µM).
For Daptomycin, in data set [2], the MIC is 0.003125 mg/mL.
Take `CN(C)[C@@H]1C(O)=C(C(N)=O)C(=O)[C@@]2(O)C(O)=C3C(=O)c4c(O)cccc4[C@@](C)(O)[C@H]3C[C@@H]12` [Tetracycline]: the “MIC of the antibiotic” value in data set [1] was 0.05 mg/mL. Besides, in [2], the MIC was 0.0025 mg/mL (≈ 5.63 µM).
With `CCCCCCCCCCCCO[C@@H]1C[C@@H](O)[C@H](O)[C@@H](CO)O1` [Compound 13], the MIC in data set [3] is 386 µM (≈ 128 µg/mL); in [4], 12 µM (≈ 3.99 µg/mL); in data set [5] it was 12 µM (≈ 3.99 µg/mL); with E. faecalis (ATCC 29212), 12 µM (≈ 3.99 µg/mL); with B. cereus (ATCC 10876), 386 µM (≈ 128 µg/mL); against B. cereus ATCC 14579, 0.128 mg/mL (≈ 385 µM). This compound showed an MBC in the data set on B. cereus ATCC 14579 of 0.128 mg/mL (≈ 385 µM). The “time of leakage, τL” value in [6] is on record as “about 326 min”; in data set [7] it was roughly 256 min. Moreover, the “leakage of encapsulated carboxyfluorescein” value in data set [6] (course of the experiment (14 h)) is given as ~ 10%. Besides, the IC50 at 24 h in “in vitro” was 100 µM. This compound also came in with an IC50 at 48 h in “in vitro” greater than 50 µM.
For Polymyxin B [reference compound], the MIC with E. coli K12 spheroplasts was greater than 1000 mg/mL; in [8], greater than 1000 mg/mL; in data set [2], 0.781 mg/mL.
In the case of `O=C(N[C@H](CO)[C@H](O)c1ccc([N+](=O)[O-])cc1)C(Cl)Cl` [Chloramphenicol, reference compound], the MIC in [3] is 25 µM (≈ 8.08 µg/mL); in data set [4], 25 µM (≈ 8.08 µg/mL); in [5] it was 25 µM (≈ 8.08 µg/mL); in the data set on E. faecalis (ATCC 29212), 19 µM (≈ 6.14 µg/mL); in the data set with B. cereus (ATCC 10876), 19 µM (≈ 6.14 µg/mL); in data set [2] it was 0.0025 mg/mL (≈ 7.74 µM).
Consider Penicillin, for which the “MIC of the antibiotic” value in data set [1] was determined as 0.02 mg/mL.
As to Colistin, the MIC in data set [2] is greater than 5 mg/mL.
Regarding `O=C(O)c1cn(C2CC2)c2cc(N3CCNCC3)c(F)cc2c1=O` [Ciprofloxacin], the “MIC of the antibiotic” value in data set [1] was 0.05 mg/mL. In data set [2], the MIC was 0.00032 mg/mL (≈ 0.966 µM).
Take `CN[C@H](CC(C)C)C(=O)N[C@H]1C(=O)N[C@@H](CC(N)=O)C(=O)N[C@H]2C(=O)N[C@H]3C(=O)N[C@H](C(=O)N[C@H](C(=O)O)c4cc(O)cc(O)c4-c4cc3ccc4O)[C@H](O)c3ccc(c(Cl)c3)Oc3cc2cc(c3O[C@@H]2O[C@H](CO)[C@@H](O)[C@H](O)[C@H]2O[C@H]2C[C@](C)(N)[C@H](O)[C@H](C)O2)Oc2ccc(cc2Cl)[C@H]1O` [Vancomycin]: the “MIC of the antibiotic” value in [1] stood at 0.005 mg/mL. In addition, the MIC in [2] was 0.00018 mg/mL (≈ 0.124 µM).
